Test system: yeast genes (expressed mRNA)
Test: DNA chip measurement of expressed mRNA of yeast genes after culture with a toxic chemical substance
Type: cell-based, Saccharomyces cerevisiae S288C
Outline: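 Yeast S288C, YPD 25° C; toxicant at log phase, 2 h, sublethal growth-inhibiting conc.; no-chemical control. Hot SDS/acetate RNA extraction, oligo-dT mRNA, Cy3/Cy5-dUTP RT. Whole-genome chip, 65° C >12 h. Readout: treated/control intensity ratio, ≥2 significant.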

CN(C)C(=S)SSC(=S)N(C)C [(10), Tetramethylthiuram disulfide]
The level of expressed mRNA in the presence of chemical substance/The level of expressed mRNA in the absence of chemical substance (yeast gene YFL010C, cultured two hours with substance): 1.4 | The level of expressed mRNA in the presence of chemical substance/The level of expressed mRNA in the absence of chemical substance (yeast gene YFL024C, cultured two hours with substance): 0.5 | The level of expressed mRNA in the presence of chemical substance/The level of expressed mRNA in the absence of chemical substance (yeast gene YFL032W, cultured two hours with substance): 0.6 | The level of expressed mRNA in the presence of chemical substance/The level of expressed mRNA in the absence of chemical substance (yeast gene YFL056C): 31.3 | The level of expressed mRNA in the presence of chemical substance/The level of expressed mRNA in the absence of chemical substance (yeast gene YFL056C, cultured for two hours with substance): 31.3 | The level of expressed mRNA in the presence of chemical substance/The level of expressed mRNA in the absence of chemical substance (yeast gene YFL057C): 46.1 | The level of expressed mRNA in the presence of chemical substance/The level of expressed mRNA in the absence of chemical substance (yeast gene YFL057C, cultured for two hours with substance): 46.1 | The level of expressed mRNA in the presence of chemical substance/The level of expressed mRNA in the absence of chemical substance (yeast gene YGL037C, cultured two hours with substance): 1.6 | The level of expressed mRNA in the presence of chemical substance/The level of expressed mRNA in the absence of chemical substance (yeast gene YGL046W, cultured two hours with substance): 4.5 | The level of expressed mRNA in the presence of chemical substance/The level of expressed mRNA in the absence of chemical substance (yeast gene YGL047W, cultured two hours with substance): 5.7 | The level of expressed mRNA in the presence of chemical substance/The level of expressed mRNA in the absence of chemical substance (yeast gene YGL053W, cultured two hours with substance): 2.4 | The level of expressed mRNA in the presence of chemical substance/The level of expressed mRNA in the absence of chemical substance (yeast gene YGL121C, cultured two hours with substance): 15.0 | The level of expressed mRNA in the presence of chemical substance/The level of expressed mRNA in the absence of chemical substance (yeast gene YGL136C, cultured two hours with substance): 1.0 | The level of expressed mRNA in the presence of chemical substance/The level of expressed mRNA in the absence of chemical substance (yeast gene YGL184C): 66.8 | The level of expressed mRNA in the presence of chemical substance/The level of expressed mRNA in the absence of chemical substance (yeast gene YGL193C, cultured two hours with substance): 1.0 | The level of expressed mRNA in the presence of chemical substance/The level of expressed mRNA in the absence of chemical substance (yeast gene YGL199C, cultured two hours with substance): 0.1 | The level of expressed mRNA in the presence of chemical substance/The level of expressed mRNA in the absence of chemical substance (yeast gene YGR101W, cultured two hours with substance): 1.4 | The level of expressed mRNA in the presence of chemical substance/The level of expressed mRNA in the absence of chemical substance (yeast gene YGR110W, cultured two hours with substance): 4.8 | The level of expressed mRNA in the presence of chemical substance/The level of expressed mRNA in the absence of chemical substance (yeast gene YGR130C, cultured two hours with substance): 1.5 | The level of expressed mRNA in the presence of chemical substance/The level of expressed mRNA in the absence of chemical substance (yeast gene YGR142W, cultured two hours with substance): 12.2 | The level of expressed mRNA in the presence of chemical substance/The level of expressed mRNA in the absence of chemical substance (yeast gene YGR154C, cultured two hours with substance): 9.1 | The level of expressed mRNA in the presence of chemical substance/The level of expressed mRNA in the absence of chemical substance (yeast gene YGR213C): 6.9 | The level of expressed mRNA in the presence of chemical substance/The level of expressed mRNA in the absence of chemical substance (yeast gene YGR221C, cultured two hours with substance): 0.7 | The level of expressed mRNA in the presence of chemical substance/The level of expressed mRNA in the absence of chemical substance (yeast gene YHL040C (detoxification protein gene)): 11.3 | The level of expressed mRNA in the presence of chemical substance/The level of expressed mRNA in the absence of chemical substance (yeast gene YHL040C (transport facilitation protein gene)): 11.3 | The level of expressed mRNA in the presence of chemical substance/The level of expressed mRNA in the absence of chemical substance (yeast gene YHL047C (detoxification protein gene)): 11.9 | The level of expressed mRNA in the presence of chemical substance/The level of expressed mRNA in the absence of chemical substance (yeast gene YHL047C (transport facilitation protein gene)): 11.9 | The level of expressed mRNA in the presence of chemical substance/The level of expressed mRNA in the absence of chemical substance (yeast gene YHR029C, cultured two hours with substance): 8.6 | The level of expressed mRNA in the presence of chemical substance/The level of expressed mRNA in the absence of chemical substance (yeast gene YHR071W): 7.2 | The level of expressed mRNA in the presence of chemical substance/The level of expressed mRNA in the absence of chemical substance (yeast gene YHR116W, cultured two hours with substance): 2.7 | The level of expressed mRNA in the presence of chemical substance/The level of expressed mRNA in the absence of chemical substance (yeast gene YHR138C, cultured two hours with substance): 4.6 | The level of expressed mRNA in the presence of chemical substance/The level of expressed mRNA in the absence of chemical substance (yeast gene YHR139C): 46.6 | The level of expressed mRNA in the presence of chemical substance/The level of expressed mRNA in the absence of chemical substance (yeast gene YHR199C, cultured two hours with substance): 6.0 | The level of expressed mRNA in the presence of chemical substance/The level of expressed mRNA in the absence of chemical substance (yeast gene YIL023C, cultured two hours with substance): 1.6 | The level of expressed mRNA in the presence of chemical substance/The level of expressed mRNA in the absence of chemical substance (yeast gene YIL024C, cultured two hours with substance): 1.8 | The level of expressed mRNA in the presence of chemical substance/The level of expressed mRNA in the absence of chemical substance (yeast gene YIL041W, cultured two hours with substance): 1.4 | The level of expressed mRNA in the presence of chemical substance/The level of expressed mRNA in the absence of chemical substance (yeast gene YIL087C, cultured two hours with substance): 1.8 | The level of expressed mRNA in the presence of chemical substance/The level of expressed mRNA in the absence of chemical substance (yeast gene YIL102C, cultured two hours with the chemical substance): 0.3 | The level of expressed mRNA in the presence of chemical substance/The level of expressed mRNA in the absence of chemical substance (yeast gene YIL117C, cultured two hours with substance): 3.5 | The level of expressed mRNA in the presence of chemical substance/The level of expressed mRNA in the absence of chemical substance (yeast gene YIL167W): 12.7 | The level of expressed mRNA in the presence of chemical substance/The level of expressed mRNA in the absence of chemical substance (yeast gene YIL168W): 19.3 | The level of expressed mRNA in the presence of chemical substance/The level of expressed mRNA in the absence of chemical substance (yeast gene YIR038C (detoxification protein gene)): 4.5 | The level of expressed mRNA in the presence of chemical substance/The level of expressed mRNA in the absence of chemical substance (yeast gene YJL020C, cultured two hours with substance): 1.0 | The level of expressed mRNA in the presence of chemical substance/The level of expressed mRNA in the absence of chemical substance (yeast gene YJL057C, cultured two hours with substance): 6.1 | The level of expressed mRNA in the presence of chemical substance/The level of expressed mRNA in the absence of chemical substance (yeast gene YJL066C, cultured two hours with substance): 2.1 | The level of expressed mRNA in the presence of chemical substance/The level of expressed mRNA in the absence of chemical substance (yeast gene YJL082W, cultured two hours with substance): 2.9 | The level of expressed mRNA in the presence of chemical substance/The level of expressed mRNA in the absence of chemical substance (yeast gene YJL100W, cultured two hours with the chemical substance): 2.7 | The level of expressed mRNA in the presence of chemical substance/The level of expressed mRNA in the absence of chemical substance (yeast gene YJL108C, cultured two hours with substance): 0.7 | The level of expressed mRNA in the presence of chemical substance/The level of expressed mRNA in the absence of chemical substance (yeast gene YJL149W, cultured two hours with substance): 3.8 | The level of expressed mRNA in the presence of chemical substance/The level of expressed mRNA in the absence of chemical substance (yeast gene YJL151C, cultured two hours with substance): 1.6

Reference: patent publication US20100041089A1, “IMPROVED METHOD FOR DETECTING CHEMICAL […]” (priority 2006, published 2010)
